Assay results published in ChEMBL document CHEMBL3046894, “Synthesis and Herbicidal Activity of Pyrimidinyl Salicylic and Thiosalicylic Acids” (J Pestic Sci, 1996).
Active and inactive are the calls of the source. No cut-off for these calls is given here.

What was measured:
[1] = tested on: Zea mays; assay: Post-emergence phytotoxicity against Zea mays (maize) assessed as mortality at 1.6 g a.i/10 a applied 11 days after germination as foliar spray; type: organism-based; conditions: in vivo, other, 264 h
[2] = tested on: Abutilon theophrasti; assay: Post-emergence herbicidal activity against Abutilon theophrasti (velvetleaf) assessed as mortality at 6.3 g a.i/10 a applied 11 days after germination as foliar spray; type: functional; conditions: 264 h
[3] = tested on: Zea mays; assay: Pre-emergence phytotoxicity against Zea mays (maize) assessed as mortality at 1.6 g a.i/10 a; type: organism-based; conditions: in vivo, other
[4] = tested on: Zea mays; assay: Pre-emergence phytotoxicity against Zea mays (maize) assessed as mortality at 6.3 g a.i/10 a; type: organism-based; conditions: in vivo, other
[5] = Pre-emergence phytotoxicity against Gossypium hirsutum (cotton) assessed as mortality at 6.3 g a.i/10 a; type: organism-based; conditions: in vivo, 6.3 g a.i/10 a, read-out: Activity
[6] = tested on: Echinochloa crus-galli; assay: Post-emergence herbicidal activity against Echinochloa crus-galli (barnyard grass) assessed as mortality at 1.6 g a.i/10 a applied 11 days after germination as foliar spray; type: functional; conditions: 264 h
[7] = tested on: Ipomoea lacunosa; assay: Pre-emergence herbicidal activity against Ipomoea lacunosa assessed as mortality at 6.3 g a.i/10 a; type: functional
[8] = tested on: Gossypium hirsutum; assay: Pre-emergence phytotoxicity against Gossypium hirsutum (cotton) assessed as mortality at 1.6 g a.i/10 a; type: organism-based; conditions: in vivo, other
[9] = tested on: Echinochloa crus-galli; assay: Pre-emergence herbicidal activity against Echinochloa crus-galli (barnyard grass) assessed as mortality at 6.3 g a.i/10 a; type: functional
[10] = tested on: Ipomoea lacunosa; assay: Pre-emergence herbicidal activity against Ipomoea lacunosa assessed as mortality at 1.6 g a.i/10 a; type: functional
[11] = tested on: Glycine max; assay: Post-emergence phytotoxicity against Glycine max (soybean) assessed as mortality at 1.6 g a.i/10 a applied 11 days after germination as foliar spray; type: organism-based; conditions: in vivo, other, 264 h
[12] = tested on: Abutilon theophrasti; assay: Pre-emergence herbicidal activity against Abutilon theophrasti (velvetleaf) assessed as mortality at 1.6 g a.i/10 a; type: functional
[13] = tested on: Abutilon theophrasti; assay: Post-emergence herbicidal activity against Abutilon theophrasti (velvetleaf) assessed as mortality at 1.6 g a.i/10 a applied 11 days after germination as foliar spray; type: functional; conditions: 264 h
[14] = tested on: Glycine max; assay: Post-emergence phytotoxicity against Glycine max (soybean) assessed as mortality at 6.3 g a.i/10 a applied 11 days after germination as foliar spray; type: organism-based; conditions: in vivo, other, 264 h
[15] = (§1) Pre-emergence phytotoxicity against Glycine max (soybean) assessed as mortality at 6.3 g a.i/10 a; type: organism-based; conditions: in vivo, 6.3 g a.i/10 a, read-out: Activity
[16] = (§2) Pre-emergence phytotoxicity against Glycine max (soybean) assessed as mortality at 1.6 g a.i/10 a; type: organism-based; conditions: in vivo, 1.6 g a.i/10 a, read-out: Activity
[17] = tested on: Abutilon theophrasti; assay: Pre-emergence herbicidal activity against Abutilon theophrasti (velvetleaf) assessed as mortality at 6.3 g a.i/10 a; type: functional
[18] = tested on: Gossypium hirsutum; assay: (§3) Post-emergence phytotoxicity against Gossypium hirsutum (cotton) assessed as mortality at 6.3 g a.i/10 a applied 11 days after germination as foliar spray; type: organism-based; conditions: in vivo, other, 264 h
[19] = tested on: Gossypium hirsutum; assay: (§4) Post-emergence phytotoxicity against Gossypium hirsutum (cotton) assessed as mortality at 1.6 g a.i/10 a applied 11 days after germination as foliar spray; type: organism-based; conditions: in vivo, other, 264 h
[20] = tested on: Xanthium strumarium; assay: Pre-emergence herbicidal activity against Xanthium strumarium (cocklebur) assessed as mortality at 1.6 g a.i/10 a; type: functional
[21] = tested on: Echinochloa crus-galli; assay: Post-emergence herbicidal activity against Echinochloa crus-galli (barnyard grass) assessed as mortality per 10 acre; type: functional
[22] = tested on: Ipomoea lacunosa; assay: Post-emergence herbicidal activity against Ipomoea lacunosa assessed as mortality per 10 acre; type: functional
[23] = tested on: Xanthium strumarium; assay: Pre-emergence herbicidal activity against Xanthium strumarium (cocklebur) assessed as mortality per 10 acre; type: functional
[24] = tested on: Digitaria sanguinalis; assay: Post-emergence herbicidal activity against Digitaria sanguinalis (hairy crabgrass) assessed as growth inhibition at 25 g a.i/10 a applied 11 days after germination as foliar spray; type: functional, organism-based
[25] = tested on: Amaranthus retroflexus; assay: Post-emergence herbicidal activity against Amaranthus retroflexus assessed as mortality per 10 acre; type: functional
[26] = tested on: Persicaria nodosa; assay: Post-emergence herbicidal activity against Persicaria nodosa assessed as mortality per 10 acre; type: functional
[27] = tested on: Amaranthus retroflexus; assay: Pre-emergence herbicidal activity against Amaranthus retroflexus assessed as mortality per 10 acre; type: functional
[28] = tested on: Persicaria nodosa; assay: Pre-emergence herbicidal activity against Persicaria nodosa assessed as mortality per 10 acre; type: functional
[29] = tested on: Chenopodium album; assay: Post-emergence herbicidal activity against Chenopodium album assessed as growth inhibition at 25 g a.i/10 a applied 11 days after germination as foliar spray; type: functional, organism-based
[30] = tested on: Echinochloa crus-galli; assay: Pre-emergence herbicidal activity against Echinochloa crus-galli (barnyard grass) assessed as mortality per 10 acre; type: functional
[31] = tested on: Ipomoea lacunosa; assay: Pre-emergence herbicidal activity against Ipomoea lacunosa assessed as mortality per 10 acre; type: functional
[32] = tested on: Xanthium strumarium; assay: Post-emergence herbicidal activity against Xanthium strumarium (cocklebur) assessed as mortality per 10 acre; type: functional
[33] = tested on: Cyperus iria; assay: Pre-emergence herbicidal activity against Cyperus iria assessed as growth inhibition at 25 g a.i/10 a; type: functional, organism-based
[34] = tested on: Cyperus iria; assay: Post-emergence herbicidal activity against Cyperus iria assessed as growth inhibition at 25 g a.i/10 a applied 11 days after germination as foliar spray; type: functional, organism-based
[35] = tested on: Persicaria nodosa; assay: Post-emergence herbicidal activity against Persicaria nodosa assessed as growth inhibition at 25 g a.i/10 a applied 11 days after germination as foliar spray; type: functional, organism-based
[36] = tested on: Gossypium hirsutum; assay: Post-emergence phytotoxicity against Gossypium hirsutum (cotton) assessed as mortality per 10 acre; type: organism-based; conditions: in vivo
[37] = tested on: Persicaria nodosa; assay: Pre-emergence herbicidal activity against Persicaria nodosa assessed as growth inhibition at 25 g a.i/10 a; type: functional, organism-based
[38] = tested on: Gossypium hirsutum; assay: Pre-emergence phytotoxicity against Gossypium hirsutum (cotton) assessed as mortality per 10 acre; type: organism-based; conditions: in vivo
[39] = tested on: Glycine max; assay: as §1; type: organism-based; conditions: in vivo, other
[40] = tested on: Echinochloa crus-galli; assay: Post-emergence herbicidal activity against Echinochloa crus-galli (barnyard grass) assessed as growth inhibition at 25 g a.i/10 a applied 11 days after germination as foliar spray; type: functional, organism-based
[41] = tested on: Glycine max; assay: as §2; type: organism-based; conditions: in vivo, other
[42] = tested on: Amaranthus retroflexus; assay: Pre-emergence herbicidal activity against Amaranthus retroflexus assessed as growth inhibition at 25 g a.i/10 a; type: functional, organism-based
[43] = tested on: Ipomoea lacunosa; assay: Post-emergence herbicidal activity against Ipomoea lacunosa assessed as mortality at 6.3 g a.i/10 a applied 11 days after germination as foliar spray; type: functional; conditions: 264 h
[44] = tested on: Digitaria sanguinalis; assay: Pre-emergence herbicidal activity against Digitaria sanguinalis (hairy crabgrass) assessed as growth inhibition at 25 g a.i/10 a; type: functional, organism-based
[45] = tested on: Chenopodium album; assay: Pre-emergence herbicidal activity against Chenopodium album assessed as growth inhibition at 25 g a.i/10 a; type: functional, organism-based
[46] = tested on: Amaranthus retroflexus; assay: Post-emergence herbicidal activity against Amaranthus retroflexus assessed as growth inhibition at 25 g a.i/10 a applied 11 days after germination as foliar spray; type: functional, organism-based
[47] = as §3; type: organism-based; conditions: in vivo, 6.3 g a.i/10 a
[48] = tested on: Echinochloa crus-galli; assay: Pre-emergence herbicidal activity against Echinochloa crus-galli (barnyard grass) assessed as growth inhibition at 25 g a.i/10 a; type: functional, organism-based
[49] = as §4; type: organism-based; conditions: in vivo, 1.6 g a.i/10 a
[50] = tested on: Ipomoea lacunosa; assay: Post-emergence herbicidal activity against Ipomoea lacunosa assessed as mortality at 1.6 g a.i/10 a applied 11 days after germination as foliar spray; type: functional; conditions: 264 h
[51] = tested on: Zea mays; assay: Post-emergence phytotoxicity against Zea mays (maize) assessed as mortality at 6.3 g a.i/10 a applied 11 days after germination as foliar spray; type: organism-based; conditions: in vivo, other, 264 h
[52] = tested on: Xanthium strumarium; assay: Pre-emergence herbicidal activity against Xanthium strumarium (cocklebur) assessed as mortality at 6.3 g a.i/10 a; type: functional
[53] = tested on: Echinochloa crus-galli; assay: Post-emergence herbicidal activity against Echinochloa crus-galli (barnyard grass) assessed as mortality at 6.3 g a.i/10 a applied 11 days after germination as foliar spray; type: functional; conditions: 264 h

## CCOc1cccc(Sc2nc(OC)cc(OC)n2)c1C(=O)O
[1]
  Activity: Toxic
[2]
  mortality at 63 g/ha: > 90%
[3]
  Activity: Non-toxic
[4]
  Activity: Toxic
[5]
  mortality: < 50%
[6]
  mortality at 16 g/ha: < 5%
[7]
  Activity: <50%
[8]
  Activity: < 50%
[9]
  Activity: >90%
[10]
  Activity: <50%
[11]
  Activity: Toxic
[12]
  Activity: <50%
[13]
  mortality at 16 g/ha: > 90%
[14]
  Activity: Toxic
[15]
  mortality: < 50%
[16]
  mortality: < 50%
[17]
  Activity: <50%
[18]
  Activity: Toxic
[19]
  Activity: Toxic

## COc1cc(OC)nc(Sc2cccc(Cl)c2C(=O)O)n1 [PYRITHIOBAC]
[20]
  Activity: <50%
[1]
  Activity: Toxic
[21]
  ED90: 25 gAi
[22]
  ED90: inactive
[23]
  ED90: 25 gAi
[2]
  mortality at 63 g/ha: > 90%
[24]
  growth inhibition (GI): Active
[3]
  Activity: Toxic
[25]
  ED90: 1.5 gAi
[26]
  ED90: 1.5 gAi
[4]
  Activity: Toxic
[5]
  mortality: < 50%
[27]
  ED90: 1.5 gAi
[28]
  ED90: inactive
[7]
  Activity: <50%
[29]
  growth inhibition (GI): Active
[30]
  ED90: 25 gAi
[31]
  ED90: 25 gAi
[8]
  Activity: < 50%
[10]
  Activity: <50%
[32]
  ED90: Active
[33]
  growth inhibition (GI): Active
[11]
  Activity: Toxic
[34]
  growth inhibition (GI): Active
[35]
  growth inhibition (GI): Active
[36]
  ED20: 50 gAi
[37]
  growth inhibition (GI): Active
[38]
  ED20: 50 gAi
[39]
  Activity: Non-toxic
[40]
  growth inhibition (GI): Active
[41]
  Activity: Non-toxic
[42]
  growth inhibition (GI): Active
[43]
  mortality at 63 g/ha: > 90%
[44]
  growth inhibition (GI): Active
[45]
  growth inhibition (GI): Active
[46]
  growth inhibition (GI): Active
[47]
  mortality at 264 h: < 5%
[48]
  growth inhibition (GI): Active
[49]
  mortality at 264 h: < 5%

## COc1cc(OC)nc(Sc2cccc(C)c2C(=O)O)n1
[20]
  Activity: <50%
[1]
  Activity: Toxic
[21]
  ED90: 100 gAi
[22]
  ED90: 50 gAi
[23]
  ED90: 25 gAi
[50]
  mortality at 16 g/ha: < 5%
[51]
  Activity: Toxic
[3]
  Activity: Toxic
[25]
  ED90: Active
[26]
  ED90: Active
[52]
  Activity: <50%
[4]
  Activity: Toxic
[5]
  mortality: < 50%
[27]
  ED90: Active
[6]
  mortality at 16 g/ha: < 5%
[28]
  ED90: Active
[7]
  Activity: <50%
[30]
  ED90: 100 gAi
[31]
  ED90: 50 gAi
[8]
  Activity: < 50%
[10]
  Activity: <50%
[32]
  ED90: 25 gAi
[11]
  Activity: Toxic
[36]
  ED20: 100 gAi
[38]
  ED20: 100 gAi
[14]
  Activity: Toxic
[39]
  Activity: Non-toxic
[16]
  mortality: < 50%
[43]
  mortality at 63 g/ha: < 5%
[18]
  Activity: Non-toxic
[19]
  Activity: Non-toxic

## COc1cc(OC)nc(Sc2cccc(C(C)=O)c2C(=O)O)n1
[20]
  Activity: <50%
[1]
  Activity: Toxic
[53]
  mortality at 63 g/ha: > 90%
[3]
  Activity: Non-toxic
[52]
  Activity: <50%
[4]
  Activity: Toxic
[5]
  mortality: < 50%
[7]
  Activity: <50%
[8]
  Activity: < 50%
[10]
  Activity: <50%
[11]
  Activity: Non-toxic
[14]
  Activity: Non-toxic
[15]
  mortality: < 50%
[16]
  mortality: < 50%
[18]
  Activity: Non-toxic
[49]
  mortality at 264 h: < 5%
